# Measured values as given in patent US11384055B2 (BIOMARIN PHARMACEUTICAL INC., priority 2017, dated 2022).
# Target: T1, Human GO (Homo sapiens, UniProt Q9UJM8)
# T1 construct: purchased Novus Biologicals NBP1-72412
# T1 sequence (Q9UJM8 1-370): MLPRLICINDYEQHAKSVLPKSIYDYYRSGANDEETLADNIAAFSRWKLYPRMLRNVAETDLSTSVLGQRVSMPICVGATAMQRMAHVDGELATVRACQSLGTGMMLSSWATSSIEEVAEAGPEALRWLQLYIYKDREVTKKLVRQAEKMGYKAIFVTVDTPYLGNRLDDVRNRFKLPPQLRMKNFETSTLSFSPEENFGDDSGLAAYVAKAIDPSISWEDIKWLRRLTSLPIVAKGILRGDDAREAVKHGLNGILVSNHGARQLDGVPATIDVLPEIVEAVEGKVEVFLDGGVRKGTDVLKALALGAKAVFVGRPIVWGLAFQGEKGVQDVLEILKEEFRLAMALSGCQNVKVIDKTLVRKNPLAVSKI
# Assay: GO enzymatic assay (coupled fluorescence/HRP assay, glycolate substrate)
# Format: biochemical
# Details: not given
# Procedure: Assay 1: GO Enzymatic Assay
# GO was incubated with its substrate, glycolate, in 50 mM potassium phosphate buffer, pH 7. […] The enzyme was optimized and the kinetics was determined.
# Compound inhibition was determined by adding various concentrations of inhibitors in the GO enzyme assay. The IC50 value for each measured compound was generated from sigmoidal dose-response (variable slope) curves with GraphPad Prism software (GraphPad Software, Inc., San Diego, Calif.) using the percent inhibition of GO activity relative to DMSO control.
row,SMILES,IC50 [µM]
1,"O=C(O)c1[nH]nnc1Oc1ccc(-c2ccc(Cl)cc2)cc1 [Compound 86, 4-((4′-chloro-[1,1′-biphenyl]-4-yl)oxy)-1H-1,2,3-triazole-5-carboxylic acid]",< 0.1
2,"O=C(O)c1[nH]nnc1Oc1ccc(Cl)c(Cl)c1 [Compound 88, 4-(3,4-dichlorophenoxy)-1H-1,2,3-triazole-5-carboxylic acid]",< 0.1
3,"O=C(O)c1[nH]nnc1Oc1ccc(F)c(F)c1 [Compound 94, 4-(3,4-difluorophenoxy)-1H-1,2,3-triazole-5-carboxylic acid]",< 0.1

# Same assay, conditions: Table 1; read-out: Range (range of IC50 values calculated from the enzymatic assays)
row,SMILES,IC50 [µM]
1,"O=C(O)c1[nH]nnc1NC1CCCN(c2ccc(OC(F)(F)F)cc2)C1 (stereo not drawn) [Compound 70, 4-((1-(4-(trifluoromethoxy)phenyl)piperidin-3-yl)amino)-1H-1,2,3-triazole-5-carboxylic acid]",0.1 to 1
2,"O=C(O)c1[nH]nnc1NC1CCN(c2ccc(Cl)cc2)CC1 [Compound 71, 4-((1-(4-chlorophenyl)piperidin-4-yl)amino)-1H-1,2,3-triazole-5-carboxylic acid 2,2,2-trifluoroacetate]",0.1 to 1
3,"O=C(OC1CC1)c1[nH]nnc1Nc1ccc(-c2ccc(OC(F)(F)F)cc2)cc1 [Compound 72, cyclopropyl 4-((4′-(trifluoromethoxy)-[1,1′-biphenyl]-4-yl)amino)-1H-1,2,3-triazole-5-carboxylate 2,2,2-trifluoroacetate]",> 10
4,O=C(O)c1[nH]nnc1NC1CCN(c2ccc(OC(F)(F)F)cc2)C1 (stereo not drawn) [Compound 73],0.1 to 1
5,"O=C(O)c1[nH]nnc1NC1CCN(c2ccc(OC(F)(F)F)cc2)CC1 [Compound 74, 4-((1-(4-(trifluoromethoxy)phenyl)piperidin-4-yl)amino)-1H-1,2,3-triazole-5-carboxylic acid]",0.1 to 1
6,"CN(c1ccc(-c2ccc(Cl)cc2)cc1)c1nn[nH]c1C(=O)O [Compound 75, 4-((4′-chloro-[1,1′-biphenyl]-4-yl)(methyl)amino)-1H-1,2,3-triazole-5-carboxylic acid 2,2,2-trifluoroacetate]",0.1 to 1
7,"O=C(O)c1[nH]nnc1Nc1ccc2c(c1)CCCC2 [Compound 77, 4-((5,6,7,8-tetrahydronaphthalen-2-yl)amino)-1H-1,2,3-triazole-5-carboxylic acid]",1 to 10
8,"O=C(O)c1[nH]nnc1Nc1ccc(Cl)c2ccccc12 [Compound 78, 4-((4-chloronaphthalen-1-yl)amino)-1H-1,2,3-triazole-5-carboxylic acid]",0.1 to 1
9,"O=C(O)c1[nH]nnc1Nc1ccc2ncsc2c1 [Compound 79, 4-(benzo[d]thiazol-6-ylamino)-1H-1,2,3-triazole-5-carboxylic acid]",1 to 10
10,"O=C(O)c1[nH]nnc1Nc1ccc(F)c(F)c1 [Compound 80, 4-((3,4-difluorophenyl)amino)-1H-1,2,3-triazole-5-carboxylic acid]",0.1 to 1
11,"CC(C)(C)C(=O)OCOC(=O)c1[nH]nnc1Nc1ccc(-c2ccc(Cl)cc2)cc1 [Compound 81, (pivaloyloxy)methyl 4-((4′-chloro-[1,1′-biphenyl]-4-yl)amino)-1H-1,2,3-triazole-5-carboxylate]",1 to 10
12,"O=C(O)c1[nH]nnc1Nc1ccc2cc(Cl)ccc2c1 [Compound 82, 4-((6-chloronaphthalen-2-yl)amino)-1H-1,2,3-triazole-5-carboxylic acid 2,2,2-trifluoroacetate]",0.1 to 1
13,"O=C(O)c1[nH]nnc1Nc1ccc(OC(F)(F)F)cc1 [Compound 83, 4-((4-(trifluoromethoxy)phenyl)amino)-1H-1,2,3-triazole-5-carboxylic acid]",0.1 to 1
14,"O=C(O)c1[nH]nnc1N1CCc2ccccc2C1 [Compound 84, 4-(3,4-dihydroisoquinolin-2(1H)-yl)-1H-1,2,3-triazole-5-carboxylic acid 2,2,2-trifluoroacetate]",0.1 to 1
15,"COC(=O)c1[nH]nnc1Oc1ccc2cc(Br)ccc2c1 [Compound 93, methyl 4-((6-bromonaphthalen-2-yl)oxy)-1H-1,2,3-triazole-5-carboxylate]",> 10
16,"O=C(O)c1[nH]nnc1Oc1ccc2c(c1)CCCC2 [Compound 97, 4-((5,6,7,8-tetrahydronaphthalen-2-yl)oxy)-1H-1,2,3-triazole-5-carboxylic acid]",< 0.1
17,"O=C(O)c1[nH]nnc1Oc1ccc2ncsc2c1 [Compound 99, 4-(benzo[d]thiazol-6-yloxy)-1H-1,2,3-triazole-5-carboxylic acid 2,2,2-trifluoroacetate]",< 0.1
18,"O=C(O)c1[nH]nnc1Oc1cc(Cl)ccc1Cl [Compound 100, 4-(2,5-dichlorophenoxy)-1H-1,2,3-triazole-5-carboxylic acid]",< 0.1
19,"CC(=O)OCn1nnc(Oc2ccc3cc(Br)ccc3c2)c1C(=O)O [Compound 101, 1-(acetoxymethyl)-4-((6-bromonaphthalen-2-yl)oxy)-1H-1,2,3-triazole-5-carboxylic acid]",0.1 to 1

# Second part, the compound after the results:
row,IC50 [µM],SMILES
1,< 0.1,"O=C(O)c1[nH]nnc1NCc1ccc(-c2ccc(Cl)c(Cl)c2)cc1 [Compound 68, 4-(((3′,4′-dichloro-[1,1′-biphenyl]-4-yl)methyl)amino)-1H-1,2,3-triazole-5-carboxylic acid]"
2,< 0.1,"O=C(O)c1[nH]nnc1Nc1ccc(Cl)c(Cl)c1 [Compound 69, 4-((3,4-dichlorophenyl)amino)-1H-1,2,3-triazole-5-carboxylic acid]"
3,< 0.1,"O=C(O)c1[nH]nnc1Nc1ccc2cc(Cl)ccc2n1 [Compound 76, 4-((6-chloroquinolin-2-yl)amino)-1H-1,2,3-triazole-5-carboxylic acid]"
4,< 0.1,"O=C(O)c1[nH]nnc1Nc1ccc2cc(Br)ccc2c1 [Compound 85, 4-((6-bromonaphthalen-2-yl)amino)-1H-1,2,3-triazole-5-carboxylic acid 2,2,2-trifluoroacetate]"
5,< 0.1,"O=C(O)c1[nH]nnc1Oc1ccc(-c2ccc(OC(F)(F)F)cc2)cc1 [Compound 87, 4-((4′-(trifluoromethoxy)-[1,1′-biphenyl]-4-yl)oxy)-1H-1,2,3-triazole-5-carboxylic acid]"
6,< 0.1,"O=C(O)c1[nH]nnc1Oc1ccc2cc(Br)ccc2c1 [Compound 89, 4-((6-bromonaphthalen-2-yl)oxy)-1H-1,2,3-triazole-5-carboxylic acid]"
7,< 0.1,"O=C(O)c1[nH]nnc1OC1CCN(c2ccc(OC(F)(F)F)cc2)C1 (stereo not drawn) [Compound 90, 4-((1-(4-(trifluoromethoxy)phenyl)pyrrolidin-3-yl)oxy)-1H-1,2,3-triazole-5-carboxylic acid]"
8,< 0.1,"O=C(O)c1[nH]nnc1Oc1cc(Cl)cc(Cl)c1 [Compound 91, 4-(3,5-dichlorophenoxy)-1H-1,2,3-triazole-5-carboxylic acid]"
9,< 0.1,"O=C(O)c1nn[nH]c1Oc1ccc(Cl)c2ccccc12 [Compound 92, 4-((4-chloronaphthalen-1-yl)oxy)-1H-1,2,3-triazole-5-carboxylic acid]"
10,< 0.1,"O=C(O)c1[nH]nnc1Oc1ccc(Cl)cc1Cl [Compound 95, 4-(2,4-dichlorophenoxy)-1H-1,2,3-triazole-5-carboxylic acid]"
11,< 0.1,"O=C(O)c1[nH]nnc1Oc1ccc(OC(F)(F)F)cc1 [Compound 96, 4-(4-(trifluoromethoxy)phenoxy)-1H-1,2,3-triazole-5-carboxylic acid]"
